In patent EP1075525B1, “DNA POLYMERASE FROM PYROBACULUM ISLANDICUM” (Roche Diagnostics GmbH, priority 1999, dated 2000):

System: DNA polymerase of P. islandicum
Assay: Non-radioactive DNA polymerase activity assay: influence of inhibitors and ions
Assay type: biochemical, Pyrobaculum islandicum
Conditions: for DNA polymerase activity: pH 7.5, 0.5 mM MgCl2, 0 mM KCl, 0.5 U

## CCN1C(=O)C=CC1=O [N-Ethylmaleimid]
1 mM N-Ethylmaleimid, preincubation of enzyme at 90°C for 20 min, 75°C
  DNA polymerase activity: 40%
2 mM N-Ethylmaleimid, preincubation of enzyme at 90°C for 20 min, 75°C
  DNA polymerase activity: 30%
5 mM N-Ethylmaleimid, preincubation of enzyme at 90°C for 20 min, 75°C
  DNA polymerase activity: 0%
After a preincubation with 5 mM NEM
  DNA polymerase activity (in words): total loss of activity

## [Cl-].[K+] [KCl]
In the presence of 100 mM KCl, 75°C, pH 7.3, 0.5 mM MgCl2
  residual activity: 7%

## C[C@@]1(CO)[C@H](O)CC[C@@]2(C)[C@H]1CC[C@H]1C[C@@H]3C[C@@]12CC[C@]3(O)CO [Aphidicolin]
50 µM (17 µg/ml) aphidicolin, 75°C
  DNA polymerase activity: 100%
200 µM (68 µg/ml) aphidicolin, 75°C
  DNA polymerase activity: 70%
500 µM (170 µg/ml) aphidicolin, 75°C
  DNA polymerase activity: 55%
2000 µM (680 µg/ml) aphidicolin, 75°C
  DNA polymerase activity: 21%

## Nc1nc2c(ncn2[C@H]2CC[C@@H](COP(=O)(O)OP(=O)(O)OP(=O)(O)O)O2)c(=O)[nH]1 [ddGTP]
ddGTP/dGTP = 5, 75°C
  DNA polymerase activity: 95%
ddGTP/dGTP = 20, 75°C
  DNA polymerase activity: 53%
ddGTP/dGTP ratio of 2
  inhibition of DNA polymerase (in words): No inhibition
